Data on eight molecules can be found in publication PMC9124866, “Structure-Activity Relationships of Dopamine Transporter Pharmacological Chaperones” (Frontiers in Cellular Neuroscience, 2022).

Where a name gives a salt, the structure may show the parent alone. Read-outs that look alike come from different tables or passages of the source.

The target in assay [1] is T1, YFP-HA-βlac-DAT (Homo sapiens, UniProt Q01959). Details: method as in Beerepoot et al., 2016. The conditions noted are these: previous experiments; ref Beerepoot et al., 2016; cited from earlier work.
T1 sequence (Q01959 1-171 limits assumed): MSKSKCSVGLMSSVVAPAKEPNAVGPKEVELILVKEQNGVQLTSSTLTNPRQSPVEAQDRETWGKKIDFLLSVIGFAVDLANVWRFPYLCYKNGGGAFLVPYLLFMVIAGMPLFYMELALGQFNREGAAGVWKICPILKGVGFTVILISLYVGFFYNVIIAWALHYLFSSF
T1 sequence (Q01959 237-620 limits assumed): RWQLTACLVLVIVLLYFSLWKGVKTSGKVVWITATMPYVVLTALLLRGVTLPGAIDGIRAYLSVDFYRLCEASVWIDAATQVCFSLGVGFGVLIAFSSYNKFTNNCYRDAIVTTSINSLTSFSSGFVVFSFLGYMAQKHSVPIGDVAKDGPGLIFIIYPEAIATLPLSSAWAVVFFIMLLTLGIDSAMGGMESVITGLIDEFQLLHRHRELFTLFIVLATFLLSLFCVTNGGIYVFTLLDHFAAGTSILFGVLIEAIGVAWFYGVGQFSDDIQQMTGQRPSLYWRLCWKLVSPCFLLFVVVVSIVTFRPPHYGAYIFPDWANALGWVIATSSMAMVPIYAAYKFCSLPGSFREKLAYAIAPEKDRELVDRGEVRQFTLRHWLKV
Assay [2] deals with T1, YFP-HA-βlac-DAT. In words: β-lactamase (βlac) surface expression assay. Type of assay: cell-based. The conditions noted are these: assumed effective EMax. Here is the method: The βlac surface expression assay was performed by following the method outlined in [Lam et al. (2013)] and [Beerepoot et al. (2015], [2016)]. The assay substrate nitrocefin (BD biosciences) was dissolved in dimethyl sulfoxide (DMSO) at a concentration of 10 mM and frozen at −80°C. Immediately before use, it was thawed and diluted to a final concentration of 100 μM in phosphate buffered saline (PBS). Cells (1 × 10^5/well) were seeded into a poly-D-lysine-coated 48-well plate and incubated for 24 h, prior to drug treatment. Drugs were added to individual wells at varying concentrations and incubated for 16 h. Subsequently, the media was aspirated, and the cells were washed twice with PBS. After removal of the final PBS wash, 200 μL of the nitrocefin solution was added to each well and the absorbance was immediately read. The EPOCH microplate spectrophotometer (BioTek) was used to measure absorbance (486 nm) for each well every minute for 30 min. The rate of reaction (slope of the curve) was used as the readout for the assay ([Beerepoot et al., 2015]). To determine suitable concentration ranges for each drug, they were dissolved in PBS or DMSO at the highest concentration possible. From here, the solutions were serial diluted 1/10 to yield 8 different concentrations. βLAC cells were then treated with the varying drug concentrations and cell viability was recorded using light microscopy. For additional measure, nitrocefin was added and the absorbance was read. For certain cases, Trypan Blue was used to quantitatively differentiate increased cell death from reduced cell division. […] Five or six doses were generally used in subsequent dosing experiments, starting at the highest non-toxic concentration.
Data analysis was performed using GraphPad Prism (GraphPad Software, La Jolla, CA). Linear regression analysis was performed on βLAC time points to determine the slope, thus the rate of reaction, for comparison. Furthermore, the slope was also used to determine the degree of dopamine uptake in the dopamine uptake assays. Non-linear regression, fitting to the log(agonist) vs. response and log(inhibitor) vs. response model curve, was used to determine dose-response relationships of surface expression and uptake assays, respectively. One-way ANOVA with Dunnett’s post hoc-test was used for the β-lactamase assay and one-way ANOVA with Bonferroni correction was used for western blot analysis.
Among these were RTI-1, RTI-2, RTI-5, RTI-6, RTI-11, RTI-20, and PAL-1007. […] The EMax values of all the analyzed drugs are included in Figure 1.
The pharmacological chaperone ability of the 15 ibogaine and tryptamine analogs, shown in Figure 3, were measured using the βlac surface expression assay. HEK cells expressing YFP-HA-βlac-DAT were incubated overnight with these compounds at concentrations varying by log and half-log dilutions, starting at 100 μM final concentration. […] Furthermore, it was important to determine whether the β-carboline analogs could also elicit a chaperone effect because they are not classified as DAT ligands ([Cao et al., 2007]). […] Removing the nitrogen from the ring reduced efficacy as observed with frovatriptan (103 ± 1.4%). […] Evodiamine (54 ± 1.7%) had no chaperone ability and caused a substantial reduction in the surface expression of DAT. Dose-response curves were generated to assess the pharmacological chaperone potencies of select compounds (Figure 4).

For the next assay, the target named is T2, WT DAT (YFP-HA-DAT) (Homo sapiens, UniProt Q01959).
T2 construct: expressed in transfected cells; host or cells: HEK293
T2 sequence (Q01959 whole entry): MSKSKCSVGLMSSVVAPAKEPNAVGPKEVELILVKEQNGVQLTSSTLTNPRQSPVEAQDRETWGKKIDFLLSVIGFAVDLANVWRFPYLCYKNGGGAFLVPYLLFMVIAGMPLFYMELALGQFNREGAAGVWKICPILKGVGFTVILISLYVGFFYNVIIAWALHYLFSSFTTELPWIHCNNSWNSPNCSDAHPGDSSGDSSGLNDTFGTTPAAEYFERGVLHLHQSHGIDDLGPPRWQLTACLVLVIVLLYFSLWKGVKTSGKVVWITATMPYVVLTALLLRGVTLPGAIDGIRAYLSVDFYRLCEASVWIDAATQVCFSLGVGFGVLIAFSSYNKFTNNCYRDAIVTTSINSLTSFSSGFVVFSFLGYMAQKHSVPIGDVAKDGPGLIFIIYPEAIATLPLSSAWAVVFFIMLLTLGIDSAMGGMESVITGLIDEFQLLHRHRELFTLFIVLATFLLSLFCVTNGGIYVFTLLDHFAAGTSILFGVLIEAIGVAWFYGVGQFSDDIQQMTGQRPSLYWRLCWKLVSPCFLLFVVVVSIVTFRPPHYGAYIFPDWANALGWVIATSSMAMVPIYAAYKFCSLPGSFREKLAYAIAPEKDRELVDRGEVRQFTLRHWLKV
In words: Western blot of mature WT DAT protein levels. Type of assay: cell-based. The conditions noted are these: overnight 100 μM. As to the method: (§1) Cells (1 × 10^6 cells/well) were seeded onto a 6-well plate and incubated for 24 h. Cells were then treated with drugs and incubated for 16 h. After the incubation period, cells were lysed in RIPA buffer supplemented with protease inhibitors (working concentrations: pepstatin A, 5 μg/mL; leupeptin, 10 μg/mL; aprotinin, 1.5 μg/mL; benzamidine, 0.1 μg/mL; PMSF, 0.1 mM) on ice. At 4°C, cell lysates were gently shaken for 15 min followed by centrifugation at 15,000 rpm for 15 min to pellet debris. The Pierce BCA protein assay kit (Thermo Fisher Scientific, Canada) was used to determine the protein concentration of the supernatant. To reach a concentration of 40 μg of protein per 20 μL, samples were diluted in fresh RIPA buffer with 12.5% Laemmli sample buffer and 2.5% β-Mercaptoethanol prior to being heated to 55°C. The protein was then loaded on a 7.5 or 10% SDS-PAGE gel and run at 100 V for approximately an hour or until the dye front reached the bottom of the gel. Next, protein was transferred to a PVDF membrane at 22 V for 16 h or 100 V for 1 h. Blots were blocked with LI-COR blocking buffer for 1 h and incubated for 1 h at room temperature with rabbit anti-GFP (1:1,000 dilution; Life Technologies, cat#A11122). After washing three times with TBST, blots were incubated with goat anti-rabbit IRDye-680RD secondary antibody (1:15,000; LI-COR, cat#926-68071). As a loading control, blots were incubated with mouse anti-GAPDH (1:5,000, Sigma-Aldrich, Canada, cat#G8795) prior to secondary antibody goat anti-mouse IRDye-800GR (1:5,000 dilution, Rockland, Limerick, PA, cat#610-132-007). All antibodies were diluted in LI-COR blocking buffer. Additionally, REVERT total protein staining (LI-COR, Lincoln, NE) was used as a loading control. […] Mature, fully glycosylated DAT (mDAT = 110 kDa) and immature, ER-resident DAT (iDAT = 75 kDa) were visualized using the Odyssey Imaging System (LI-COR, Lincoln, NE) and Image Studio Version 5.2 software (Supplementary Figure 1).
(§2) We next assessed whether drugs that increase DAT surface expression also increase total protein levels of DAT. Cells expressing YFP-HA-DAT were incubated with select test compounds and DAT protein levels were examined by western blot. The effects of the compounds were assessed on WT DAT and K590A DAT. The K590A mutant is a well-characterized ER-retained, trafficking-deficient DAT mutant ([Miranda et al., 2004]) that can be rescued by pharmacological chaperones ([Beerepoot et al., 2016]).
(§3) FIGURE 5 Effect of noribogaine, tetrahydroharmine, PAL-594, bicifadine, and RTI-20 on WT and K590A DAT expression. […] (B) Quantification of WT mDAT protein levels. […] (D) Quantification of K590A mDAT protein levels. […]

Assay [3] has as its target T3, DAT (Homo sapiens, UniProt Q01959).
T3 construct: expressed in transfected cells
The conditions noted are these: read-out: Ki, DAT binding; ref Carroll et al., 2009; cited from earlier work.

Assay [4] deals with T3, DAT. The settings on record: read-out: IC50, dopamine uptake inhibition; ref Carroll et al., 2009; cited from earlier work.
Assay [5] deals with T3, DAT. The assay is described as follows: Dopamine uptake inhibition dose response of hit compounds (Figure 6). It counts as cell-based. The settings on record: doses 1 nM to 100 μM, normalized to vehicle. Here is the method:
Dopamine uptake inhibition was conducted using the Neurotransmitter Transporter Uptake Assay Kit (Molecular Devices, prod#R8173). Cells (1 × 10^5/well) were seeded into 96-well plates and incubated for 24 h. The cells were subjected to overnight drug treatment. The following day, wells were washed and incubated for 30 min with a mixture of 1X Hank’s Balanced Salt Solution (HBSS) and 0.1% Bovine Serum Albumin (BSA) Buffer. Dopamine uptake inhibitors were added during the incubation period. Following the incubation, the fluorescent dye was added, and the plate was immediately transferred to the bottom-read fluorescence microplate reader (Spectramax M3, Molecular Devices) for kinetic read-mode. The assay reads the amount of fluorescent activity which increases as fluorescent dye molecules are transported into the cells by the DAT. The read-out for this assay is the slope which equals the fluorescent measurements/time, ultimately denoting the uptake rate.
Data analysis was performed using GraphPad Prism (GraphPad Software, La Jolla, CA). Linear regression analysis was performed on βLAC time points to determine the slope, thus the rate of reaction, for comparison. Furthermore, the slope was also used to determine the degree of dopamine uptake in the dopamine uptake assays. […]

In a further assay the target is T4, K590A DAT (Homo sapiens, UniProt Q01959, K590A).
T4 construct: expressed in transfected cells; host or cells: HEK293
T4 sequence (Q01959 whole entry K590A): as the sequence (Q01959 whole entry) above, with K590A counted along it
In words: Western blot of mature K590A DAT protein levels. Type of assay: cell-based. The settings on record: overnight treatment. Here is the method: as §1, §2, §3
(Immunoblotting shows a protein as a band on a membrane.)

Where [6] appears, read: HEK293, read-out: EMax (%), WT DAT surface expression, HEK cells expressing YFP-HA-βlac-DAT, overnight (16 h) incubation, up to 100 μM, normalized to vehicle.
[7] abbreviates: HEK293, HEK cells expressing YFP-HA-βlac-DAT, overnight (16 h) incubation, up to 100 μM, normalized to vehicle, read-out: EMax (%), WT DAT surface expression.

T3 sequence (Q01959 whole entry): as the sequence (Q01959 whole entry) above

Usually Emax stands for the size of the effect at its maximum, as opposed to the concentration needed. For `CC(NC(C)(C)C)C(=O)c1cccc(Cl)c1` (stereo not shown) [Bupropion, Bupropion hydrochloride, reference compound], on YFP-HA-βlac-DAT [1], the “previously reported increase of WT DAT surface expression (EMax)” value is on record as 137%. In addition, at YFP-HA-βlac-DAT [2] (setting [6]), the Emax worked out at 144 ± 7.7%.

Consider `Cc1ccc(C(=O)C(C)NC(C)(C)C)cc1Cl` (stereo not shown) [RTI-20], for which the “mature WT DAT (mDAT) protein levels” value at WT DAT (YFP-HA-DAT) is on record as “significantly increase”. Besides, the maximum response (Emax) at YFP-HA-βlac-DAT [2] (setting [7]) was determined as 147 ± 8%.

A word on the Ki: it is a measure of affinity in units of concentration, obtained from inhibition or displacement. In general, IC50 refers to the concentration that gives 50% inhibition. Regarding `Cc1ccc(C(=O)C(C)NC(C)(C)C)cc1` (stereo not shown) [RTI-5], on DAT [3], the Ki was greater than 10 µM. For the same molecule, the IC50 at DAT [4] is 6.84 µM. The Emax at YFP-HA-βlac-DAT [2] (setting [7]) was 140 ± 5.5%.

Consider ibogaine [reference compound], for which the “previously reported increase of WT DAT surface expression (EMax)” value at YFP-HA-βlac-DAT [1] is given as 187%. On YFP-HA-βlac-DAT [2] (HEK cells expressing YFP-HA-βlac-DAT, overnight (16 h) incubation, up to 100 μM, normalized to vehicle), the “EMax (%), WT DAT surface expression” value is given as 222 ± 7.9%.

As to `CCCC(NC(C)(C)C)C(=O)c1cccc(Cl)c1` (stereo not shown) [RTI-12], the “maximal dopamine uptake inhibition” value at DAT [5] is on record as 96%. For the same molecule, the Emax at YFP-HA-βlac-DAT [2] (setting [7]) was 113 ± 6.3%.

As for `COc1ccc2c3c([nH]c2c1)C(C)NCC3` (stereo not shown) [Tetrahydroharmine, tetrahydroharmine], the “K590A DAT (mDAT) protein levels” value at K590A DAT was “statistically significant effect”. Besides, at YFP-HA-βlac-DAT [2] (setting [6]), the Emax turned out to be 137 ± 6.8%.

With `CC1NCCOC1c1cccc(Cl)c1` (stereo not shown) [PAL-594], the “K590A DAT (mDAT) protein levels” value on K590A DAT is reported as “statistically significant effect”. Further, on WT DAT (YFP-HA-DAT), the “mature WT DAT (mDAT) protein levels” value is on record as “significantly increase”. The Emax at YFP-HA-βlac-DAT [2] (setting [7]) was 166 ± 8.7%.

Consider `Cc1ccc(C23CNCC2C3)cc1` (stereo not shown) [Bicifadine, bicifadine], for which the “K590A DAT (mDAT) protein levels” value at K590A DAT is on record as “statistically significant effect”. For the same molecule, the “mature WT DAT (mDAT) protein levels” value at WT DAT (YFP-HA-DAT) is reported as “significantly increase”. At YFP-HA-βlac-DAT [2] (setting [6]), the Emax came out at 149 ± 15%.
